From patent US9593110B2, “Neprilysin inhibitors” (Theravence Biopharma R&D IP, LLC, priority 2014, dated 2017) come the findings set out here.

In the experiment the target is human NEP (Homo sapiens (Human), UniProt P08473). Briefly: In vitro enzyme inhibition assay at human NEP. The conditions noted are these: recombinant human NEP, fluorogenic peptide substrate, 37° C.; for Ki: pKi.

Where only a bound is given, the exact number is not on record here.

Sequence of human NEP (P08473 52-750): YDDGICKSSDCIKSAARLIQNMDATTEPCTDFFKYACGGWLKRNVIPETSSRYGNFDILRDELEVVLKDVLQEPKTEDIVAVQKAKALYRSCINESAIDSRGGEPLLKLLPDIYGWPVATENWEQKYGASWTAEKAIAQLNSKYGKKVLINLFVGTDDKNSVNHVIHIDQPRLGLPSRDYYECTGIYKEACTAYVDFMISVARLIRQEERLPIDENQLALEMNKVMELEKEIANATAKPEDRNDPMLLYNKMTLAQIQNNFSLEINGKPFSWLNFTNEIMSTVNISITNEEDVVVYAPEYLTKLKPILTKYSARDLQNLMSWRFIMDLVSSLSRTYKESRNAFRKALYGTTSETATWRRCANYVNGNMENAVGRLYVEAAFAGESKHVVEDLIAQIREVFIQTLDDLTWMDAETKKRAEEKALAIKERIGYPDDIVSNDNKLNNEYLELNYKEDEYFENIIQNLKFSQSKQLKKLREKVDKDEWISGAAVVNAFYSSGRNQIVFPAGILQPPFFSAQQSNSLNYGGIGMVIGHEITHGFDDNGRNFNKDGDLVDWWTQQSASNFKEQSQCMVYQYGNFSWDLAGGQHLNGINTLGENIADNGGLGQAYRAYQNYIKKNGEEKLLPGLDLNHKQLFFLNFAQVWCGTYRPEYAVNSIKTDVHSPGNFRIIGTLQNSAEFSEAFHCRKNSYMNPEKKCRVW

Take `CCOC[C@H](C[C@@H](Cc1ccc(-c2cccc(Cl)c2)cc1)NC(=O)c1cc(O)no1)C(=O)O` [Example 8, (2S,4S)-5-(3′-Chlorobiphenyl-4-yl)-2-ethoxymethyl-4-[(3-hydroxyisoxazole-5-carbonyl)amino]pentanoic Acid]: the inhibition constant (Ki) is not above 1 nM. With `CCOC[C@H](C[C@@H](Cc1ccc(-c2cccc(Cl)c2)cc1)NC(=O)c1c[nH]nn1)C(=O)O` [Example 9-1, (2S,4S)-5-(3′-Chlorobiphenyl-4-yl)-2-ethoxymethyl-4-[(1H-[1,2,3]triazole-4-carbonyl)amino]pentanoic acid], the pKi entry is recorded as “≧9.0”. `CCOC[C@H](C[C@@H](Cc1ccc(-c2cccc(Cl)c2)cc1)NC(=O)c1cc(C(C)=O)[nH]n1)C(=O)O` [Example 9-2, (2S,4S)-4-[(5-Acetyl-1H-pyrazole-3-carbonyl)-amino]-5-(3′-chlorobiphenyl-4-yl)-2-ethoxymethylpentanoic acid]: the pKi entry is “≧9.0”.

Regarding `CCOC[C@H](C[C@@H](Cc1ccc(-c2cccc(Cl)c2)cc1)NC(=O)c1n[nH]c(C(F)(F)F)n1)C(=O)O` [Example 9-3, (2S,4S)-5-(3′-Chlorobiphenyl-4-yl)-2-ethoxymethyl-4-[(5-trifluoromethyl-1H-[1,2,4]triazole-3-carbonyl)amino]pentanoic acid], the pKi result was “≧9.0”. Consider `CCOC[C@H](C[C@@H](Cc1ccc(-c2cccc(Cl)c2)cc1)NC(=O)c1cc(OC)no1)C(=O)O` [Example 9-4, (2S,4S)-5-(3′-Chlorobiphenyl-4-yl)-2-ethoxymethyl-4-[(3-methoxy-isoxazole-5-carbonyl)amino]pentanoic acid], for which the pKi entry is listed as “≧9.0”. Take `CCOC[C@H](C[C@@H](Cc1ccc(-c2cccc(Cl)c2)cc1)NC(=O)c1noc(=O)[nH]1)C(=O)O` [Example 9-5, (2S,4S)-5-(3′-Chlorobiphenyl-4-yl)-2-ethoxymethyl-4-[(5-oxo-4,5-dihydro-[1,2,4]oxadiazole-3-carbonyl)amino]pentanoic acid]: the pKi result is on record as “≧9.0”. For the compound `CCOC[C@H](C[C@@H](Cc1ccc(-c2ccccc2)cc1)NC(=O)c1c[nH]nn1)C(=O)O` [Example 10, (2S,4S)-5-Biphenyl-4-yl-2-ethoxymethyl-4-[(1H-[1,2,3]triazole-4-carbonyl)amino]pentanoic Acid], the pKi result is given as “≧9.0”.

With `O=C(N[C@H](Cc1ccc(-c2ccccc2)cc1)C[C@@H](COCCO)C(=O)O)c1c[nH]nn1` [Example 11, (2S,4S)-5-Biphenyl-4-yl-2-(2-hydroxyethoxymethyl)-4-[(1H-[1,2,3]triazole-4-carbonyl)amino]pentanoic Acid], the inhibition constant Ki fell in the range of 1.26 to 3.16 nM.

For `O=C(N[C@H](Cc1ccc(-c2ccccc2)cc1)C[C@@H](COCCCO)C(=O)O)c1c[nH]nn1` [Example 12, (2S,4S)-5-Biphenyl-4-yl-2-(3-hydroxypropoxymethyl)-4-[(1H-[1,2,3]triazole-4-carbonyl)amino]pentanoic Acid], the inhibition constant Ki lay in the range of 1.26 to 3.16 nM.

Turning to `N[C@H](C[C@@H](Cc1ccc(-c2cc(Cl)ccc2F)cc1)NC(=O)c1c[nH]nn1)C(=O)O` [Example 13, (2R,4R)-2-Amino-5-(5′-chloro-2′-fluorobiphenyl-4-yl)-4-[(1H-[1,2,3]triazole-4-carbonyl)amino]pentanoic Acid], the Ki was not above 1 nM. On the same count and under the same terms, the result for `CC(C)c1coc(C(=O)N[C@H](Cc2ccc(-c3cc(Cl)ccc3F)cc2)C[C@@H](N)C(=O)O)n1` [Example 15, (2R,4R)-2-Amino-5-(5′-chloro-2′-fluorobiphenyl-4-yl)-4-[(4-isopropyloxazole-2-carbonyl)amino]pentanoic Acid] reads not above 1 nM. With `CCc1cc(C(=O)N[C@H](Cc2ccc(-c3cc(Cl)ccc3F)cc2)C[C@@H](N)C(=O)O)on1` [Example 16-1, (2R,4R)-2-Amino-5-(5′-chloro-2′-fluorobiphenyl-4-yl)-4-[(3-ethylisoxazole-5-carbonyl)-amino]pentanoic acid], the inhibitory constant (Ki) lay in the range of 1.26 to 3.16 nM. For the compound `CCCc1cc(C(=O)N[C@H](Cc2ccc(-c3cc(Cl)ccc3F)cc2)C[C@@H](N)C(=O)O)no1` [Example 16-2, (2R,4R)-2-Amino-5-(5′-chloro-2′-fluorobiphenyl-4-yl)-4-[(5-propylisoxazole-3-carbonyl)-amino]pentanoic acid], the Ki is 1.26 to 3.16 nM. For `Cc1cnc(C(=O)N[C@H](Cc2ccc(-c3cc(Cl)ccc3F)cc2)C[C@@H](N)C(=O)O)o1` [Example 16-3, (2R,4R)-2-Amino-5-(5′-chloro-2′-fluorobiphenyl-4-yl)-4-[(5-methyloxazole-2-carbonyl)-amino]pentanoic acid], the Ki lay in the range of 1.26 to 3.16 nM. Consider `N[C@H](C[C@@H](Cc1ccc(-c2cc(Cl)ccc2F)cc1)NC(=O)c1coc(C2CC2)n1)C(=O)O` [Example 16-4, (2R,4R)-2-Amino-5-(5′-chloro-2′-fluorobiphenyl-4-yl)-4-[(2-cyclopropyloxazole-4-carbonyl)amino]pentanoic acid], for which the Ki was 1.26 to 3.16 nM. Same read-out and setting: then `CCOc1nc(C(=O)N[C@H](Cc2ccc(-c3cc(Cl)ccc3F)cc2)C[C@@H](N)C(=O)O)co1` [Example 16-5, (2R,4R)-2-Amino-5-(5′-chloro-2′-fluorobiphenyl-4-yl)-4-[(2-ethoxyoxazole-4-carbonyl)-amino]pentanoic acid], with 3.16 to 10 nM. In the case of `CCCc1nc(C(=O)N[C@H](Cc2ccc(-c3cc(Cl)ccc3F)cc2)C[C@@H](N)C(=O)O)co1` [Example 16-6, (2R,4R)-2-Amino-5-(5′-chloro-2′-fluorobiphenyl-4-yl)-4-[(2-propyloxazole-4-carbonyl)-amino]pentanoic acid], the inhibition constant Ki was 3.16 to 10 nM. On to `N[C@H](C[C@@H](Cc1ccc(-c2cc(Cl)ccc2F)cc1)NC(=O)c1ccc(Cl)cn1)C(=O)O` [Example 16-7, (2R,4R)-2-Amino-5-(5′-chloro-2′-fluorobiphenyl-4-yl)-4-[(5-chloropyridine-2-carbonyl)-amino]pentanoic acid], for which the Ki fell in the range of 3.16 to 10 nM.

Regarding `N[C@H](C[C@@H](Cc1ccc(-c2cc(Cl)ccc2F)cc1)NC(=O)c1ccns1)C(=O)O` [Example 16-8, (2R,4R)-2-Amino-5-(5′-chloro-2′-fluorobiphenyl-4-yl)-4-[(isothiazole-5-carbonyl)amino]-pentanoic acid], the Ki is 3.16 to 10 nM. Turning to `CC(=O)c1cc(C(=O)N[C@H](Cc2ccc(-c3cc(Cl)ccc3F)cc2)C[C@@H](N)C(=O)O)[nH]n1` [Example 16-9, (2R,4R)-4-[(5-Acetyl-2H-pyrazole-3-carbonyl)amino]-2-amino-5-(5′-chloro-2′-fluoro-biphenyl-4-yl)pentanoic acid], the pKi entry is recorded as “≧9.0”. For `CCOC(=O)[C@H](N)C[C@@H](Cc1ccc(-c2cc(Cl)ccc2F)cc1)NC(=O)c1cc(O)no1` [Example 16-11, (2R,4R)-2-Amino-5-(5′-chloro-2′-fluorobiphenyl-4-yl)-4-[(3-hydroxyisoxazole-5-carbonyl)amino]pentanoic acid ethyl ester], the inhibitory constant (Ki) lay within 3.16 to 10 nM. In the case of `N[C@@H](C[C@@H](Cc1ccc(-c2cc(Cl)ccc2F)cc1)NC(=O)c1noc(=O)[nH]1)C(=O)O` [Example 16-15, (2S,4R)-2-Amino-5-(5′-chloro-2′-fluorobiphenyl-4-yl)-4-[(5-oxo-4,5-dihydro-[1,2,4]oxadiazole-3-carbonyl)amino]pentanoic acid], the inhibition constant (Ki) is 3.16 to 10 nM. For the compound `N[C@H](C[C@@H](Cc1ccc(-c2cc(Cl)ccc2F)cc1)NC(=O)c1noc(=O)[nH]1)C(=O)O` [Example 16-16, (2R,4R)-2-Amino-5-(5′-chloro-2′-fluorobiphenyl-4-yl)-4-[(5-oxo-4,5-dihydro-[1,2,4]oxadiazole-3-carbonyl)amino]pentanoic acid], the pKi result is “≧9.0”. Regarding `CN(C)C(=O)c1cc(C(=O)N[C@H](Cc2ccc(-c3cc(Cl)ccc3F)cc2)C[C@@H](N)C(=O)O)[nH]n1` [Example 16-18, (2R,4R)-2-Amino-5-(5′-chloro-2′-fluorobiphenyl-4-yl)-4-[(5-dimethylcarbamoyl-2H-pyrazole-3-carbonyl)amino]pentanoic acid], the pKi result is recorded as “≧9.0”. Consider `Cc1n[nH]c(C(=O)N[C@H](Cc2ccc(-c3cc(Cl)ccc3F)cc2)C[C@@H](N)C(=O)O)c1F` [Example 16-20, (2R,4R)-2-Amino-5-(5′-chloro-2′-fluorobiphenyl-4-yl)-4-[(4-fluoro-5-methyl-2H-pyrazole-3-carbonyl)amino]pentanoic acid], for which the Ki lay in the range of 1.26 to 3.16 nM. For the compound `CNC(=O)c1cc(C(=O)N[C@H](Cc2ccc(-c3cc(Cl)ccc3F)cc2)C[C@@H](N)C(=O)O)[nH]n1` [Example 16-21, (2R,4R)-2-Amino-5-(5′-chloro-2′-fluorobiphenyl-4-yl)-4-[(5-methylcarbamoyl-2H-pyrazole-3-carbonyl)amino]pentanoic acid], the pKi result is listed as “≧9.0”. The same measure, in the same setting: then `N[C@H](C[C@@H](Cc1ccc(-c2cc(Cl)ccc2F)cc1)NC(=O)c1nc2cc(Cl)ccn2n1)C(=O)O` [Example 16-25, (2R,4R)-2-Amino-5-(5′-chloro-2′-fluorobiphenyl-4-yl)-4-[(7-chloro-[1,2,4]triazolo[1,5-a]pyridine-2-carbonyl)amino]pentanoic acid], with “≧9.0”. Take `N[C@@H](C[C@@H](Cc1ccc(-c2cc(Cl)ccc2F)cc1)NC(=O)c1nc2cc(Cl)ccn2n1)C(=O)O` [Example 16-26, (2S,4R)-2-Amino-5-(5′-chloro-2′-fluorobiphenyl-4-yl)-4-[(7-chloro-[1,2,4]triazolo[1,5-a]pyridine-2-carbonyl)amino]pentanoic acid]: the Ki lay in the range of 1.26 to 3.16 nM. Take `N[C@@H](C[C@@H](Cc1ccc(-c2cc(Cl)ccc2F)cc1)NC(=O)c1cc(O)no1)C(=O)O` [Example 16-27, (2S,4R)-2-Amino-5-(5′-chloro-2′-fluorobiphenyl-4-yl)-4-[(3-hydroxyisoxazole-5-carbonyl)amino]pentanoic acid]: the Ki is 1.26 to 3.16 nM.

Regarding `N[C@H](C[C@@H](Cc1ccc(-c2cc(Cl)ccc2F)cc1)NC(=O)c1cc(O)no1)C(=O)O` [Example 16-28, (2R,4R)-2-Amino-5-(5′-chloro-2′-fluorobiphenyl-4-yl)-4-[(3-hydroxyisoxazole-5-carbonyl)amino]pentanoic acid], the pKi result is “≧9.0”.
